No end group written: not given here.
How the values were obtained:
[1] = LPS binding affinity (Kd) by Isothermal Titration Calorimeter (ITC); design: species or system E. coli K1; conditions: stated in words relative to FP1 (wild type, WT)
Source text: FP1 (ADK 44-54) is denoted by wild type (WT), and peptides in which a point mutation occurred at various sites in WT were manufactured (FP3, FP5, FP6, and FP9). To increase the interaction with LPS in a residue sequence of FP3, peptides were designed based on FP3- and LPS-binding models (FP12-NH2 and FP13-NH2), and peptides were designed by additionally introducing a non-natural amino acid and an amino acid isomer (allomeric D-type amino acid) (allD FP12-NH2, allD FP13-NH2, allD FP-13-9a, allD FP-13-9w, allD FP-13-9k, and allD FP13-NH2 (AcOH)). In addition, an N-terminus PEGylated peptide (PEG-alld FP13-NH2 (AcOH)) was additionally designed, synthesized, and provided by ANYGEN, Co. Ltd. The binding affinity between each of the provided peptides and lipopolysaccharide (LPS) was confirmed through measuring the binding affinity (Kd) using Isothermal Titration Calorimeter (ITC).
Specifically, a method of analyzing binding affinity (Kd) between a peptide and LPS is as follows.
Measurement was carried out using a Malvern MicroCal PEAQ-ITC cell instrument, and the following pretreatment was carried out to confirm interaction with LPS. The amount and morphology of a sample cell are 300 µL and coin-shaped, fixed-in-place, respectively; a syringe rotation rate was 1,200 rpm; and a temperature was 30 °C, 35 °C or 25 °C.
Before the experiment, LPS and the peptide were previously diluted with PBS, thereby preparing 2 mM LPS and 0.2 mM peptide. 300 µL of the peptide was added into cells in the ITC instrument, which had been washed, and 40 µL of LPS was put into a syringe. After measurement conditions for ITC (temperature, number of injections) were set, the syringe was inserted into the cell, and ITC measurement was started. When the measurement was completed, analysis is performed, and the Kd values of LPS and the peptide were calculated.

[2] = Calcein dye leakage from liposome mimicking red blood cell membrane; conditions: for dye leakage: PC/CH (1:1, w/w) liposome mimicking a red blood cell membrane in a mammal, FIG. 3
Method: (§1) To study an action mechanism for FP12-NH2, FP13-NH2, allD FP12-NH2, and allD FP13-NH2 peptides, the disruption ability of the peptides against liposomes mimicking a bacterial cell membrane and a red blood cell membrane was measured.
(§2) EYPG is an abbreviation for egg yolk L-α-phosphatidyl-DL-glycerol, and EYPC is an abbreviation for egg yolk 1,2-diacyl-sn-glycero-3-phosphocholine. CH is an abbreviation for cholesterol. After dissolving the phospholipids composed according to the content of each component in chloroform, the chloroform was removed using a rotary evaporator, and lyophilization was performed overnight. Afterward, the dried lipid film was dissolved in a Tris-buffer solution, and calcein […]. After repeated freezing and thawing, the calcein-encapsulated liposome was manufactured using an extruder. Subsequently, after an excitation wavelength of a spectrofluorimeter (Shimadzu RF 5301 PC spectrofluorimeter, Japan) was set to 490 nm, and an emission wavelength was set to 520 nm, the peptide was administered to the liposome to measure relative dye leakage, provided that a 100% dye leakage was expressed as fluorescence intensity when 0.01% Triton-Xioo was added.
The upper graphs of FIG. 3 show the % dye leakage for an EYPC/EYPG (7:3, w/w) liposome mimicking bacterial cells, encapsulating a fluorescent dye, calcein, by a peptide according to a peptide concentration. […] The lower graphs of FIG. […]

[3] = tested on: S. aureus; conditions: after treatment with proteolytic enzyme
[4] = In vivo toxicity (survival rate for 72 hours); design: species or system ICR mice; conditions: ratio of a drug dose exhibiting toxicity to a drug dose for exhibiting a desired response
Method: To confirm the therapeutic and pharmaceutical effects of an acetate salt substitution of allD FP13-NH2, a septic animal model induced by intraperitoneally administering each of the Escherichia coli (standard strain and ESBL) strains or a normal mouse was treated with the peptide allD FP13-NH2 (AcOH). The antibiotic effect, the toxicity, and the inhibitory activity of […] cytokine IL-6 of the salt substitution with those of the same peptide at the end of trifluoroacetic acid (TFA) were compared.
An experimental method is as follows: Six-week-old female ICR mice (SPF mice, Samtako) with an average body weight of 25 g were used as experimental animals. The experimental animals were provided with sterile feed and water and bred with less than 10 mice per cage, and a day/night cycle was 12 hours.
To evaluate in vivo toxicity, the mice were divided into groups (n=5 or 6 per group) per experiment, and intraperitoneally treated six times with allD FP13-NH2 (TFA) and allD FP13-NH2 (AcOH) mixed with […]'S DEX solution (vehicle) at 0, 1, 2, 3, 4, or 5 hours, followed by observing a survival rate at intervals of 12 hours for 72 hours.

[5] = tested on: red blood cells; assay: Red blood cell hemolytic activity; type: cell-based, human; conditions: even at a low concentration; control peptide
Method: The following experiment was carried out to determine the toxicity of a peptide through measurement of the red blood cell hemolytic activity in a human.
The red blood cells in a human were diluted with PBS for washing, and centrifuged for 10 minutes, the washing process was repeated three times. The 8.0% red blood cell solution diluted with PBS was loaded into a 96-well microtiter plate by 100 µL and 100 µL of a peptide solution was mixed, the mixture was incubated at 37 °C for 1 hour, and then the 96-well microtiter plate was centrifuged for 5 minutes. A 100 µL of supernatant was taken and transferred to another 96-well microtiter plate, and then absorbance was measured at 405 nm. Here, a value obtained when treated with 0.1% Triton X-100 was calculated as 100% hemolysis, and the hemolytic activity of the peptide was calculated as % hemolysis by Equation 1 below. Cell disruption rate(%Hemolysis) = (A−C)/(B−C) × 100 [formula]
Here, A is the absorbance at 405 nm in a peptide solution, B is the absorbance at 405 nm in a 0.1% Triton X-100, and C is the absorbance at 405 nm in a PBS solution.

[6] = Calcein dye leakage from liposome mimicking gram-negative bacterial cell membrane; conditions: PC/PG (7:3, w/w) liposome; even at a low concentration
Method: as §1
as §2, with “added. […]” for “added.”

**Q.** With KLRVKLRRKLR [allD FP-13-9k] as the molecule, how does the LPS binding affinity [1] read?
**A.** strong LPS binding affinity, which is equal to or higher than that of FP1

**Q.** Which results are given for `CC(C)C[C@@H](NC(=O)[C@H](N)CCCNC(=N)N)C(=O)N[C@H](CCCNC(=N)N)C(=O)N[C@@H](C(=O)N[C@H](CCCCN)C(=O)N[C@H](CC(C)C)C(=O)N[C@H](CCCNC(=N)N)C(=O)N[C@H](CCCNC(=N)N)C(=O)N[C@H](Cc1ccc(O)cc1)C(=O)N[C@H](CC(C)C)C(=O)N[C@H](CCCNC(=N)N)C(N)=O)C(C)C` [allD FP12-NH2]?
**A.** dye leakage [2]: almost no dye leakage; stability (proteolytic enzyme resistance) [3]: very high stability

**Q.** Which dye leakage [2] does the source give for `CC(C)C[C@H](NC(=O)[C@H](Cc1ccc(O)cc1)NC(=O)[C@H](CCCNC(=N)N)NC(=O)[C@H](CCCNC(=N)N)NC(=O)[C@H](CC(C)C)NC(=O)[C@H](CCCCN)NC(=O)[C@@H](NC(=O)[C@H](CCCNC(=N)N)NC(=O)[C@H](CC(C)C)NC(=O)[C@@H](N)CCCNC(=N)N)C(C)C)C(=O)N[C@@H](CCCNC(=N)N)C(N)=O` [FP12-NH2] here?
**A.** almost no dye leakage

**Q.** Which “therapeutic index = LD50/ED50” value [4] does the source give for `CC(C)C[C@@H](NC(=O)[C@H](N)CCCCN)C(=O)N[C@H](CCCNC(=N)N)C(=O)N[C@@H](C(=O)N[C@H](CCCCN)C(=O)N[C@H](CC(C)C)C(=O)N[C@H](CCCNC(=N)N)C(=O)N[C@H](CCCNC(=N)N)C(=O)N[C@H](Cc1ccc(O)cc1)C(=O)N[C@H](CC(C)C)C(=O)N[C@H](CCCNC(=N)N)C(N)=O)C(C)C` [allD FP13-NH2 (AcOH)] here?
**A.** greater than 80

**Q.** For melittin, which hemolytic activity [5] is on record?
**A.** 100%

**Q.** And the calcein leakage ([2]; PC/CH (10:1, w/w) liposome mimicking a human red blood cell, 0.25 µM)?
**A.** ~100%

**Q.** And the calcein leakage [6]?
**A.** responsible for calcein leakage

**Q.** For KLRVKLRRWLR [allD FP-13-9w], which LPS binding affinity [1] is on record?
**A.** strong LPS binding affinity, which is equal to or higher than that of FP1

**Q.** For `CC(C)C[C@@H](NC(=O)[C@H](N)CCCCN)C(=O)N[C@H](CCCNC(=N)N)C(=O)N[C@@H](C(=O)N[C@H](CCCCN)C(=O)N[C@H](CC(C)C)C(=O)N[C@H](CCCNC(=N)N)C(=O)N[C@H](CCCNC(=N)N)C(=O)N[C@H](Cc1ccc(O)cc1)C(=O)N[C@H](CC(C)C)C(=O)N[C@H](CCCNC(=N)N)C(N)=O)C(C)C` [allD FP13-NH2], which dye leakage [2] is on record?
**A.** almost no dye leakage

**Q.** And the “stability (proteolytic enzyme resistance)” value [3]?
**A.** very high stability

**Q.** With KLRVKLRRALR [allD FP-13-9a] as the molecule, how does the LPS binding affinity [1] read?
**A.** strong LPS binding affinity, which is equal to or higher than that of FP1

**Q.** With `CC(C)C[C@H](NC(=O)[C@H](Cc1ccc(O)cc1)NC(=O)[C@H](CCCNC(=N)N)NC(=O)[C@H](CCCNC(=N)N)NC(=O)[C@H](CC(C)C)NC(=O)[C@H](CCCCN)NC(=O)[C@@H](NC(=O)[C@H](CCCNC(=N)N)NC(=O)[C@H](CC(C)C)NC(=O)[C@@H](N)CCCCN)C(C)C)C(=O)N[C@@H](CCCNC(=N)N)C(N)=O` [FP13-NH2] as the molecule, how does the dye leakage [2] read?
**A.** almost no dye leakage
